The source of these data is article PMC6995562, “Evaluating Iso-Mukaadial Acetate and Ursolic Acid Acetate as Plasmodium falciparum Hypoxanthine-Guanine-Xanthine Phosphoribosyltransferase Inhibitors” (Biomolecules, 2019).

pKd: −log10 of the molar value. Like-named read-outs stand apart in the source and are kept apart here.

The assay deals with T1, Plasmodium falciparum hypoxanthine-guanine-xanthine phosphoribosyltransferase (PfHGXPRT) (Plasmodium falciparum, UniProt Q8IJS1).
T1 construct: gene PF3D7_1012400; recombinant, N-terminal His6 tag (pET28-a), expressed in E. coli BL21 (DE3)
T1 sequence (Q8IJS1 entry or part of it): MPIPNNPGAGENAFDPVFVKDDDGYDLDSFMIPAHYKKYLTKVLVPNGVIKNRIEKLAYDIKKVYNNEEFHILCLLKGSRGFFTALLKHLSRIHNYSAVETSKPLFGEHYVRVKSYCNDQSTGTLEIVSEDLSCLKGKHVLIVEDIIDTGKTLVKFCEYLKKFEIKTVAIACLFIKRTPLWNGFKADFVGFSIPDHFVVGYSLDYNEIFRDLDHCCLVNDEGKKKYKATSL
Nature of the assay: microscale thermophoresis (MST) with labelled His-tagged protein; UV-Vis spectral change. In kind it is binding. On the technique in general: Microscale thermophoresis detects binding through changes in fluorescence in a small temperature gradient.

The term pKd denotes the Kd on a negative log10 scale, so that one unit is a factor of ten. Compound `CC(=O)O[C@H]1CC[C@]2(C)[C@H]3CC=C4[C@@H]5[C@@H](C)[C@H](C)CC[C@]5(C(=O)O)CC[C@@]4(C)[C@]3(C)CC[C@H]2C1(C)C` [UAA, ursolic acid acetate] gave a negative logarithm of the Kd (pKd) of 5.55.

In the case of iso-mukaadial acetate [IMA], the pKd (read-out: Kd) was 7.08.
